As usually defined, the inhibition is the percentage by which the read-out fell short of the control. Read a low inhibition as little suppression.

T1 sequence (P11309 whole entry): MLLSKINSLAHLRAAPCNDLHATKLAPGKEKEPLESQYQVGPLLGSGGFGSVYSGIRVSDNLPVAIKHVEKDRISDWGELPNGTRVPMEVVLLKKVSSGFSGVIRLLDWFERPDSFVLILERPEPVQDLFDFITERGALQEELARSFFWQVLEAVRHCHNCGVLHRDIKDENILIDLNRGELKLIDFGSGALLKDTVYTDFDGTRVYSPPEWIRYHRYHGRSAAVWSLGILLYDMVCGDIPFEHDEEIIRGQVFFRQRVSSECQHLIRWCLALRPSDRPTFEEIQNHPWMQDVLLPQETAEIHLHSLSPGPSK

This assay addresses T1, PIM-1 (Homo sapiens, UniProt P11309).
T1 construct: purchased Millipore Corporation 14-573
The assay can be described thus: PIM Kinase Activity Assay-IMAP Fluorescence Polarization Assay (PIM-1). It is filed as biochemical. To be noted: 3 μM concentration. As for the experimental part: In the present invention, the PIM activities of the compounds were tested by BioDuro (Building E, No. 29 Life Science Park Road, Changping District, Beijing, 102206, P.R. China). The method used for testing is PIM Kinase Activity Assay-IMAP Fluorescence Polarization Assay
PIM Kinase Activity Assay-IMAP Fluorescence Polarization Assay
PIM Is a serine/threonine protein kinase, they can phosphorylate 5-FAM labeled small peptide substrates. Fluorescence polarization is less for non-phosphorylated substrates since that can not bind to the binder (metal binding nanoparticles). On the other hand, fluorescence polarization is more for phosphorylated substrates since that can bind to the binder. The level of 5-FAM labeled small peptide substrates phosphorylation reflects the activities of PIM kinase. By measuring their ability of inhibiting PIM kinase of the compounds of the present invention, their activities of inhibiting PIM kinases can be determined.
EnVision (PerkinElmer, Waltham, Mass.)
PIM1 (Millipore Cat. #14-573) (Millipore Corporation, Billerica, Mass.)
5-FAM labeled peptide (5-FAM-RSRHSSYPAGT, AnaSpec Cat.#63801) (AnaSpec Inc., Fremont, Calif.)
IMAP FP Screening Express kit (IMAP FP Screening kit) (Molecular Devices Cat.# R8127) (Molecular Devices, Sunnyvale, Calif.)
a) 10 mM compound stock solution is diluted to appropriate concentration with 100% DMSO, then diluted 10 fold to targeted concentration with test butter to keep DMSO concentration at 10%
1 ul of compound solution and 4 ul of enzyme (PIM-1final concentration 0.025 nM, PIM-2 concentration 3 nM) is incubated at 23° C. for 15 min, 2.5 ul ATP (for PIM-1 and PIM-2, the final ATP concentrations are 30 uM and 5 uM respectively) 2.5 ul 5-FAM labeled peptide (final concentration 100 nM) was added to start the reaction. The reaction is run at 23° C. for 60 min. DMSO is used in place of compound stock solution as maximum reference and assay buffer is used in place of enzyme as minimum reference. c) add 30 ul IMAP binding reagent (containing 75% IMAP Buffer A, 25% IMAP Buffer B, 1/600 dilution of beads) to stop the reaction, incubated at room temperature for 60 min d) Measure fluorescence polarization, excitation wavelength: 485 nm, emission wavelength 530 nm. 6. Data Process IC50 values were calculated using Graphpad Prism®.
(In general: Polarisation of emitted light reports the rotation of a fluorescent probe.)
`CC(C)c1nc(C(=O)Nc2cncnc2OC2CCNCC2)cs1` [Compound 33, 2-isopropyl-N-(4-(piperidin-4-yloxy)pyrimidin-5-yl)thiazole-4-carboxamide] gave an inhibition at 3 µM of 20 to 50%. In turn, `O=C(Nc1cncnc1OC1CCNCC1)c1coc(-c2c(F)cccc2F)n1` [Compound 57, 2-(2,6-difluorophenyl)-N-(4-(piperidin-4-yloxy)pyrimidin-5-yl)oxazole-4-carboxamide] came in with an inhibition at 3 µM of 20 to 50%.

In turn, `O=C(Nc1cncnc1OC1CCNCC1)c1csc(C2CCNCC2)n1` [Compound 59, 2-(piperidin-4-yl)-N-(4-(piperidin-4-yloxy)pyrimidin-5-yl)thiazole-4-carboxamide] returned an inhibition at 3 µM of 20 to 50%. On to `O=C(Nc1cncnc1OC1CCNCC1)c1csc(N2CCOCC2)n1` [Compound 60, 2-morpholino-N-(4-(piperidin-4-yloxy)pyrimidin-5-yl)thiazole-4-carboxamide], for which the inhibition at 3 µM was in the range of 20 to 50%. To `O=C(Nc1cncnc1OC1CCNCC1)c1csc(N2CCCCC2)n1` [Compound 61, 2-(piperidin-1-yl)-N-(4-(piperidin-4-yloxy)pyrimidin-5-yl)thiazole-4-carboxamide] belongs 20 to 50%; to `CC(=O)Nc1nc(C(=O)Nc2cncnc2OC2CCNCC2)cs1` [Compound 62, 2-acetamido-N-(4-(piperidin-4-yloxy)pyrimidin-5-yl)thiazole-4-carboxamide], 20 to 50%; to `Nc1sc(-c2c(F)cccc2F)nc1C(=O)Nc1cncnc1S(=O)(=O)CCCO` [Compound 63, 5-amino-2-(2,6-difluorophenyl)-N-(4-((3-hydroxypropyl)sulfonyl)pyrimidin-5-yl)thiazole-4-carboxamide], 20 to 50%.

Values taken from patent publication US9090594B2, “PIM kinase inhibitors and preparation methods and use in medicinal manufacture thereof” (JIKAI BIOSCIENCES, INC., priority 2011, dated 2015).
